Data reported in paper PMC9841529 (ACS Infectious Diseases, 2022).
“Also recorded” adds a separate entry of the source. Read-outs that look alike come from different tables or passages of the source. Residues, ends and D or L forms follow the SMILES beside them.

How the values were obtained:
[1] = test system: B. anthracis Sterne 7702 spores; format: cell-based, Bacillus anthracis
S. aureus LAC = format: cell-based, Staphylococcus aureus
E. faecium AR0575 = format: cell-based, Enterococcus faecium
N. gonorrhoeae FA1090 = format: cell-based, Neisseria gonorrhoeae
[2] = test system: B. anthracis Sterne 7702 ΔftsX bacilli
N. gonorrhoeae H041 = format: cell-based, Neisseria gonorrhoeae
[3] = test system: mcr-1-positive E. coli FI-4531, E. coli J53 and K. pneumoniae 13883; format: cell-based, Escherichia coli; Klebsiella pneumoniae
[4] = test system: K. pneumoniae MS84 (disrupted mgrB); format: cell-based, Klebsiella pneumoniae
A. baumannii AR0304 = format: cell-based, Acinetobacter baumannii
[5] = test system: K. pneumoniae BA2664 (mutated pmrB); format: cell-based, Klebsiella pneumoniae
[6] = test system: B. anthracis Sterne 7702 bacilli (wild-type)
E. cloacae BL36213 = format: cell-based, Enterobacter cloacae
[7] = pH 7.4
[8] = test system: CXCR3-expressing human T-cells; format: cell-based

For “PESKAIK(S5A)LLK(S5A)VSKERSKRSP (sidechain bridge or staple) [stapled peptide P9]”, the “viability of ungerminated spores compared to the initial inoculum” value [1] was “modest reductions in the viability of ungerminated spores”, the hemolysis (human RBCs) was “neither pre-stapled nor stapled peptide P9 exerted hemolytic effects” and the “bacterial killing (in words)” value (S. aureus LAC) was “particularly susceptible”. For the same compound, the “bacterial killing (in words)” value (E. faecium AR0575) was “particularly susceptible”, the “bacterial killing (in words)” value (N. gonorrhoeae FA1090) was “particularly susceptible” and the EC50 [2] was 9.6 ± 1 µM. For the same compound, the “bacterial killing (in words)” value (N. gonorrhoeae H041) was “particularly susceptible”, the “bacterial killing (in words)” value [3] was “killed colistin-resistant K. pneumoniae and E. coli strains” and the “bacterial killing (in words)” value [4] was “killed colistin-resistant K. pneumoniae”. For the same compound, the “cytotoxic effects (dead cells)” value (primary human T-cells) was “greatly reduced”, the “percentage of dead cells” value (primary human T-cells) was roughly 45% and the “bacterial killing (in words)” value (A. baumannii AR0304) was “particularly susceptible”. The “bacterial killing (in words)” value [5] was “killed colistin-resistant K. pneumoniae”, the EC50 [6] was 8.5 ± 0.9 µM and the EC50 ([6]; read-out: EC50 values (as stated in running text)) was 4 to 5 µM.

In the case of PESKAIKNLLKAVSKERSKRSP [P9], the hemolysis (human RBCs) is reported as “negligible hemolysis”, the “bacterial killing (in words)” value (S. aureus LAC) is reported as “lost its capacity to kill any of the isolates examined; also recorded: little to no effect on the viability” and the “bacterial killing (in words)” value (E. faecium AR0575) is reported as “lost its capacity to kill any of the isolates examined; also recorded: little to no effect on the viability”. The “bacterial killing (in words)” value (N. gonorrhoeae FA1090) was “reductions in bacterial viability were more modest”, the “bacterial killing (in words)” value (N. gonorrhoeae H041) was “reductions in bacterial viability were more modest” and the “bacterial killing (in words)” value [3] was “undiminished”. The “bacterial killing (in words)” value (E. cloacae BL36213) was “lost its capacity to kill any of the isolates examined; also recorded: except E. cloacae”, the “bacterial killing (in words)” value [4] was “but not peptide P9” and the “percentage of dead cells” value (primary human T-cells) was “less than 5%”. For the same compound, the “% survival (cfu/ml)” value (K. pneumoniae BL13802) was “efficiently killed K. pneumoniae”, the “bacterial survival (RFU)” value (K. pneumoniae BL13802) was “abolished the ability” and the “secondary structure content: antiparallel β-sheet” value [7] was 12%. For the same compound, the “secondary structure content: turn” value [7] was 18%, the “secondary structure content: α-helix” value [7] was 35% and the “bacterial killing (in words)” value [5] was “but not peptide P9”.

With CXCL10 the “chemotactic index (CI)” value [8] was “approximately 6”.

“PESKAIK(S5A)LLK(S5A)VSKERSKRSP [pre-stapled peptide P9]” gave an EC50 [2] of 5 ± 1.2 µM and an EC50 [6] of 4.3 ± 0.4 µM.

For EIIATMKKKGEKRCL [P5], the “decrease of heat-treated cfu counts versus initial spore inoculum” value [1] was roughly 200 fold, the “increase of cfu counts without heat treatment versus initial spore inoculum” value [1] was “more than 10 fold” and the hemolysis (human RBCs) was “negligible hemolysis”. For the same compound, the T-cell migration [8] was “did not elicit T-cell migration” and the “percentage of dead cells” value (primary human T-cells) was “less than 5%”.

With KNLLKAVSKERSKRSP [P8] the “% survival (cfu/ml)” value (K. pneumoniae BL13802) was “efficiently killed K. pneumoniae”.

For Melittin [reference compound], the hemolysis (human RBCs) was “high levels of hemolysis”.

With TISVCPTLRRIVSC [P1scram] the “bacterial viability, % survival (RFU)” value [6] was “abolished antimicrobial activity”.

For `CC[C@H](C)[C@H](NC(=O)[C@H](CO)NC(=O)[C@@H](NC(=O)[C@H](CS)NC(=O)[C@@H](NC(=O)[C@H](CS)NC(=O)[C@H](CCCNC(=N)N)NC(=O)[C@@H](NC(=O)[C@@H](NC(=O)[C@H](CCCNC(=N)N)NC(=O)[C@H](CO)NC(=O)[C@H](CC(C)C)NC(=O)[C@@H]1CCCN1C(=O)[C@@H](N)C(C)C)[C@@H](C)O)C(C)C)[C@@H](C)O)[C@@H](C)CC)C(N)=O` [P1] (H-VPLSRTVRCTCISI-NH2), the hemolysis (human RBCs) was “negligible hemolysis”, the EC50 ([2]; Sterne 7702 ΔftsX bacilli, 4 h) was 53.1 ± 0.8 µM and the “percentage of dead cells” value (primary human T-cells) was “less than 5%”. The EC50 (K. pneumoniae BL13802; BL13802, 2 h) was 13.4 ± 1.2 µM and the EC50 ([6]; Sterne 7702 bacilli (wild-type, 4 h)) was 18.1 ± 0.3 µM.
